According to US5093331A, “Labdane derivatives, a process for their preparation, and their use as medicaments” (Hoechst Aktiengesellschaft, priority 1987, dated 1992):
Values after ≈ are worked out from the molar mass of the structure shown. Where a name gives a salt, the structure may show the parent alone.

What follows are compounds tested on Blood pressure in cats (assay: Test for an antihypertensive effect: blood pressure in cats). Conditions: 0.1 mg/kg i.v., anesthetized cats, formula Ia.
Format: in vivo
Experimental: Test for an antihypertensive effect
Cats of both sexes and weighing 3 to 4 kg are anesthetized with ether and maintained under chloralose anesthesia (70 mg/kg i.v.). Cannulas are placed in the femoral artery and femoral vein to record the blood pressure and to administer the medicament, respectively. The blood pressure in the femoral artery is recorded via a Statham P 23 Db pressure transducer on a Nihon-Kohden pen recorder for physiological purposes. The compound to be tested is dissolved in distilled water and administered intravenously. The fall in blood pressure and the duration of the effect lowering blood pressure are noted.
With `C=C[C@@]1(C)CC(=O)[C@]2(O)[C@@]3(C)[C@@H](O)CCC(C)(C)[C@@H]3[C@H](O)[C@H](OC(=O)COC(=O)CN3CCCCC3)[C@@]2(C)O1` the “duration (of fall of B.P.)” value was 40 min and the “fall of B.P.” value was 25 mm Hg.
For `C=C[C@@]1(C)CC(=O)[C@]2(O)[C@@]3(C)[C@@H](O)CCC(C)(C)[C@@H]3[C@H](O)[C@H](OC(=O)COC(=O)CN)[C@@]2(C)O1` [1 NH2, 8,13-Epoxy-7β-(2-glycinyloxyacetoxy)-1α,6β,9α-trihydroxylabd-14-en-11-one monohydrochloride], the “duration (of fall of B.P.)” value was 120 min and the “fall of B.P.” value was 20 mm Hg.
In the case of `C=C[C@@]1(C)CC(=O)[C@]2(O)[C@@]3(C)[C@@H](O)CCC(C)(C)[C@@H]3[C@H](O)[C@H](OC(=O)COC(=O)CN(C(C)C)C(C)C)[C@@]2(C)O1` [1 NH[CH(CH3)2]2], the “duration (of fall of B.P.)” value is reported as 125 min and the “fall of B.P.” value is reported as 25 mm Hg.
With `C=C[C@@]1(C)CC(=O)[C@]2(O)[C@@]3(C)[C@@H](O)CCC(C)(C)[C@@H]3[C@H](O)[C@H](OC(=O)COC(=O)CN3CCN(C)CC3)[C@@]2(C)O1` [drawing 61] the “duration (of fall of B.P.)” value was 40 min and the “fall of B.P.” value was 20 mm Hg.
In the case of `C=C[C@@]1(C)CC(=O)[C@]2(O)[C@@]3(C)[C@@H](O)CCC(C)(C)[C@@H]3[C@H](O)[C@H](OC(=O)COC(=O)CN3CCOCC3)[C@@]2(C)O1` [drawing 62], the “duration (of fall of B.P.)” value is reported as 60 min and the “fall of B.P.” value is reported as 30 mm Hg.

Same assay, conditions: 0.3 mg/kg i.v., anesthetized cats, formula Ia
With `C=C[C@@]1(C)CC(=O)[C@]2(O)[C@@]3(C)[C@@H](O)CCC(C)(C)[C@@H]3[C@H](O)[C@H](OC(=O)COC(=O)CN3CCN(C(=O)OCC)CC3)[C@@]2(C)O1` [drawing 63] the “duration (of fall of B.P.)” value was 30 min and the “fall of B.P.” value was 35 mm Hg.
`C=C[C@@]1(C)CC(=O)[C@]2(O)[C@@]3(C)[C@@H](O)CCC(C)(C)[C@@H]3[C@H](O)[C@H](OC(=O)COC(=O)CNC(=O)OC(C)(C)C)[C@@]2(C)O1` [1 NHBoC] was tested, and the “duration (of fall of B.P.)” value was 35 min and the “fall of B.P.” value was 30 mm Hg.

Same assay, conditions: 1 mg/kg i.v., anesthetized cats, formula Ia
In the case of `C=C[C@@]1(C)CC(=O)[C@]2(O)[C@@]3(C)[C@@H](O)CCC(C)(C)[C@@H]3[C@H](O)[C@H](OC(=O)COC(=O)CN3CCC(c4ccccc4)CC3)[C@@]2(C)O1` [drawing 60], the “duration (of fall of B.P.)” value is reported as 45 min and the “fall of B.P.” value is reported as 60 mm Hg.
In the case of `C=C[C@@]1(C)CC(=O)[C@]2(O)[C@@]3(C)[C@@H](O)CCC(C)(C)[C@@H]3[C@H](O)[C@H](OC(=O)COC(=O)CNc3cc(OC)c(OC)c(OC)c3)[C@@]2(C)O1` [drawing 64], the “duration (of fall of B.P.)” value is reported as 60 min and the “fall of B.P.” value is reported as 80 mm Hg.

These compounds were tested on Guineapig atrium (assay: Positive inotropic effect, isolated electrically stimulated guineapig atrium). Conditions: Cavia porcellus, Table III, formula Ia, 32° C., contractility recorded 7 to 10 minutes.
Format: cell-based
Experimental: Positive inotropic effect
The following method was used:
Guineapigs of both sexes and weighing 400 g are sacrificed, and the heart is removed and placed in Ringer's solution at room temperature. Both the left and the right atria are then isolated and fixed in an organ holder, and the preparation is placed in a bath containing Ringer's solution and maintained at a temperature of 32° C. A mixture of 95% O2 and 5% CO2 is then bubbled through the organ bath and the atrium is electrically stimulated. The compound to be tested is dissolved in water to give a solution of known concentration and is added to the bath. The contractility of the atrium is recorded for 7 to 10 minutes on a Nihon Kohden 4-channel pen recorder with an isometric strain gage. The activity is expressed on the basis of the resulting data as the EC50.
The results obtained in this model are indicated for representative compounds of the invention in Tables III and IV which follow: […]
With `C=C[C@@]1(C)CC(=O)[C@]2(O)[C@@]3(C)[C@@H](O)CCC(C)(C)[C@@H]3[C@H](O)[C@H](OC(=O)COC(=O)CN(C(C)C)C(C)C)[C@@]2(C)O1` [1 N[CH(CH3)2]2, 8,13-Epoxy-7β-(2-diisopropylaminoacetoxyacetoxy)-1α, 6β,9α-trihydroxylabd-14-en-11-one hydrochloride sesquihydrate] the EC50 was 1 µg/mL.
For `C=C[C@@]1(C)CC(=O)[C@]2(O)[C@@]3(C)[C@@H](O)CCC(C)(C)[C@@H]3[C@H](O)[C@H](OC(=O)COC(=O)CN3CCN(C(=O)OCC)CC3)[C@@]2(C)O1` [drawing 52], the EC50 was over 1 µg/mL.
For `C=C[C@@]1(C)CC(=O)[C@]2(O)[C@@]3(C)[C@@H](O)CCC(C)(C)[C@@H]3[C@H](O)[C@H](OC(=O)COC(=O)CNc3cc(OC)c(OC)c(OC)c3)[C@@]2(C)O1` [drawing 48], the EC50 was 0.545 µg/mL (≈ 0.839 µM).
Work on `C=C[C@@]1(C)CC(=O)[C@]2(O)[C@@]3(C)[C@@H](O)CCC(C)(C)[C@@H]3[C@H](O)[C@H](OC(=O)COC(=O)CN3CCN(C)CC3)[C@@]2(C)O1` [drawing 50] yielded an EC50 of 0.1 µg/mL (≈ 0.176 µM).
For `C=C[C@@]1(C)CC(=O)[C@]2(O)[C@@]3(C)[C@@H](O)CCC(C)(C)[C@@H]3[C@H](O)[C@H](OC(=O)COC(=O)CN)[C@@]2(C)O1` [1 NH2, 8,13-Epoxy-7β-(2-glycinyloxyacetoxy)-1α,6β,9α-trihydroxylabd-14-en-11-one monohydrochloride], the EC50 was 0.1 µg/mL.
Compound `C=C[C@@]1(C)CC(=O)[C@]2(O)[C@@]3(C)[C@@H](O)CCC(C)(C)[C@@H]3[C@H](O)[C@H](OC(=O)COC(=O)CN3CCOCC3)[C@@]2(C)O1` [drawing 51] has an EC50 of 1.42 µg/mL (≈ 2.56 µM).
In the case of `C=C[C@@]1(C)CC(=O)[C@]2(O)[C@@]3(C)[C@@H](O)CCC(C)(C)[C@@H]3[C@H](O)[C@H](OC(=O)COC(=O)CN3CCC(c4ccccc4)CC3)[C@@]2(C)O1` [drawing 49], the EC50 is reported as 0.18 µg/mL (≈ 0.287 µM).
Compound `C=C[C@@]1(C)CC(=O)[C@]2(O)[C@@]3(C)[C@@H](O)CCC(C)(C)[C@@H]3[C@H](O)[C@H](OC(=O)COC(=O)CN(CC)CC)[C@@]2(C)O1` [1 N(C2 H5)2, 8,13-Epoxy-7β-(2-N,N-diethylglycinyloxyacetoxy)-1α,6β,9α-trihydroxylabd-14-en-11-one hydrochloride] has an EC50 of 0.03 µg/mL.

Same assay, conditions: Cavia porcellus, Table IV, formula Ib, 32° C., contractility recorded 7 to 10 minutes
For `C=C[C@@]1(C)CC(=O)[C@]2(O)[C@@]3(C)[C@@H](O)CCC(C)(C)[C@@H]3[C@H](OC(=O)COC(=O)CN(C(C)C)C(C)C)[C@H](OC(C)=O)[C@@]2(C)O1` [1 OAc N[CH(CH3)2]2, 7β-Acetoxy-6β-(2-N,N-diisopropylaminoacetoxyacetoxy)-8,13-epoxy-1α,9α-dihydroxylabd-14-en-11-one hydrochloride monohydrate], the EC50 was 0.14 µg/mL.
In the case of `C=C[C@@]1(C)CC(=O)[C@]2(O)[C@@]3(C)[C@@H](O)CCC(C)(C)[C@@H]3[C@H](OC(=O)COC(=O)CN3CCCCC3)[C@H](OC(C)=O)[C@@]2(C)O1`, the EC50 is reported as 0.04 µg/mL (≈ 0.0674 µM).
With `C=C[C@@]1(C)CC(=O)[C@]2(O)[C@@]3(C)[C@@H](O)CCC(C)(C)[C@@H]3[C@H](OC(=O)COC(=O)CN)[C@H](OC(C)=O)[C@@]2(C)O1` [1 OAc NH2, 7β-acetoxy-8,13-epoxy-6β-(2-glycinyloxyacetoxy)-1α,9α-dihydroxylabd-14-en-11-one hydrochloride] the EC50 was 0.008 µg/mL.
With `C=C[C@@]1(C)CC(=O)[C@]2(O)[C@@]3(C)[C@@H](O)CCC(C)(C)[C@@H]3[C@H](OC(=O)COC(=O)CCN)[C@H](OC(C)=O)[C@@]2(C)O1` [2 OAc NH2] the EC50 was 0.02 µg/mL (≈ 0.0371 µM).
`C=C[C@@]1(C)CC(=O)[C@]2(O)[C@@]3(C)[C@@H](O)CCC(C)(C)[C@@H]3[C@H](OC(=O)COC(=O)CCN(C)C)[C@H](OC(C)=O)[C@@]2(C)O1` [2 OAc N(CH3)2] was tested, and the EC50 was 0.058 µg/mL (≈ 0.102 µM).
Work on `C=C[C@@]1(C)CC(=O)[C@]2(O)[C@@]3(C)[C@@H](O)CCC(C)(C)[C@@H]3[C@H](OC(=O)COC(=O)CN(CC)CC)[C@H](OC(C)=O)[C@@]2(C)O1` [1 OAc N(C2 H5)2, 7β-Acetoxy-6β-(2-N,N-diethylaminoacetoxyacetoxy)-8,13-epoxy-1α,9α-dihydroxylabd-14-en-11-one hydrochloride sesquihydrate] yielded an EC50 of 0.03 µg/mL.
`C=C[C@@]1(C)CC(=O)[C@]2(O)[C@@]3(C)[C@@H](O)CCC(C)(C)[C@@H]3[C@H](OC(=O)COC(=O)CN3CCOCC3)[C@H](OC(C)=O)[C@@]2(C)O1` was tested, and the EC50 was 0.072 µg/mL (≈ 0.121 µM).
With `C=C[C@@]1(C)CC(=O)[C@]2(O)[C@@]3(C)[C@@H](O)CCC(C)(C)[C@@H]3[C@H](OC(=O)COC(=O)CN3CCN(C)CC3)[C@H](OC(C)=O)[C@@]2(C)O1` the EC50 was 0.006 µg/mL (≈ 0.00986 µM).
`C=C[C@@]1(C)CC(=O)[C@]2(O)[C@@]3(C)[C@@H](O)CCC(C)(C)[C@@H]3[C@H](OC(=O)COC(=O)CCN3CCCCC3)[C@H](OC(C)=O)[C@@]2(C)O1` showed an EC50 of 0.086 µg/mL (≈ 0.142 µM).
`C=C[C@@]1(C)CC(=O)[C@]2(O)[C@@]3(C)[C@@H](O)CCC(C)(C)[C@@H]3[C@H](OC(=O)COC(=O)CN)[C@H](O)[C@@]2(C)O1` [1 OH NH2, 8,13-epoxy-6β-(2-glycinyloxyacetoxy)-1α,7β, 9α-trihydroxylabd-14-en-11-one hydrochloride] showed an EC50 of over 10 µg/mL.
